biological target: phosphorylated active hERK2 enzyme (Homo sapiens (Human), UniProt P28482); test: Active Human ERK2 (hERK2) Activity Assay (IMAP-FP); type: biochemical; details: 0.5 nM hERK2, 30 μM ATP, 10 point titration
Protocol: Active Human ERK2 (hERK2) Activity Assay:
Activated ERK2 activity was determined in an IMAP-FP assay (Molecular Devices). Using this assay format, the potency (IC50) of each compound was determined from a 10 point (1:3 serial dilution, 3 μM starting compound concentration) titration curve using the following outlined procedure. […] Following a 15 minute compound & enzyme incubation, each reaction was initiated by the addition of 10 μL kinase buffer containing 2.45 μM ERK2 IMAP substrate peptides and 75 μM ATP. The final reaction in each well of 25 μL consists of 0.5 nM hERK2, 900 nM unlabeled peptide, 80 nM labeled-peptide, and 30 μM ATP. Phosphorylation reactions were allowed to proceed for 60 minutes and were immediately quenched by the addition of 60 μL IMAP detection beads (1:1000 dilutions) in IMAP binding buffer (Molecular Devices) with 24 mM NaCl. Plates were read on EnVision reader after 60 minutes binding equilibration using Fluorescence Polarization protocol (Perkin Elmer).

phosphorylated active hERK2 enzyme, sequence (P28482 whole entry): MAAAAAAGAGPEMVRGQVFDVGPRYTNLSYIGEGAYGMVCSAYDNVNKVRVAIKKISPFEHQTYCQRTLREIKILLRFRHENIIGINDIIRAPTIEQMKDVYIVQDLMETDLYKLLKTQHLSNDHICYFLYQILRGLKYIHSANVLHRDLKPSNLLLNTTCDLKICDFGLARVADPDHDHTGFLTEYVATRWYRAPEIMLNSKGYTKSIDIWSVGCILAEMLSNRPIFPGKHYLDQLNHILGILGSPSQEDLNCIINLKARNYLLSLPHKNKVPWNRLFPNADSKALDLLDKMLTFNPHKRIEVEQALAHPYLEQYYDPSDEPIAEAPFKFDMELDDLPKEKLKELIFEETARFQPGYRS

SMILES	IC50 [nM]
Cc1nc(NC(=O)N[C@H](C)c2ccccc2)cc2[nH]nc(-c3ccnc(F)c3)c12 [Example 2, 1-[3-(2-fluoropyridin-4-yl)-4-methyl-1H-pyrazolo[4,3-c]pyridin-6-yl]-3-[(1R)-1-phenylethyl]urea]	1.24
C[C@@H](NC(=O)Nc1cc2[nH]nc(CO)c2c(CO)n1)c1ccccc1 [Example 25, (R)-1-(3,4-bis(hydroxymethyl)-1H-pyrazolo[4,3-c]pyridin-6-yl)-3-(1-phenylethyl)urea]	1.85
C[C@@H](O)[C@@H](NC(=O)Nc1cc2[nH]nc(C3CC3)c2c(CO)n1)c1ccccc1 [Example 9, 1-[3-cyclopropyl-4-(hydroxymethyl)-1H-pyrazolo[4,3-c]pyridin-6-yl]-3-[(1S,2R)-2-hydroxy-1-phenylpropyl]urea]	0.75
CC(C)(O)[C@@H](NC(=O)Nc1cc2[nH]nc(C3CC3)c2c(CO)n1)c1ccccc1 [Example 6, 1-[3-cyclopropyl-4-(hydroxymethyl)-1H-pyrazolo[4,3-c]pyridin-6-yl]-3-[(1S)-2-hydroxy-2-methyl-1-phenylpropyl]urea]	4.34
CC(F)(F)c1n[nH]c2cc(NC(=O)N[C@@H](c3ccccc3)C(C)(C)O)nc(CO)c12 [Example 28, (S)-1-(3-(1,1-difluoroethyl)-4-(hydroxymethyl)-1H-pyrazolo[4,3-c]pyridin-6-yl)-3-(2-hydroxy-2-methyl-1-phenylpropyl)urea]	14.1
C[C@@H](NC(=O)Nc1cc2[nH]nc(-c3ccnc(F)c3)c2c(CO)n1)c1ccccc1 [Example 3, (R)-1-(3-(2-fluoropyridin-4-yl)-4-(hydroxymethyl)-1H-pyrazolo[4,3-c]pyridin-6-yl)-3-(1-phenylethyl)urea]	0.92
CC(C)(O)[C@@H](NC(=O)Nc1cc2[nH]nc(C3CC3)c2c(CO)n1)c1ccc(F)cc1 [Example 7, 1-[3-cyclopropyl-4-(hydroxymethyl)-1H-pyrazolo[4,3-c]pyridin-6-yl]-3-[(1S)-1-(4-fluorophenyl)-2-hydroxy-2-methylpropyl]urea]	0.83
CC(O)c1n[nH]c2cc(NC(=O)N[C@H](C)c3ccccc3)nc(CO)c12 (stereo partly drawn) [Example 27, 1-(3-(1-hydroxyethyl)-4-(hydroxymethyl)-1H-pyrazolo[4,3-c]pyridin-6-yl)-3-((R)-1-phenylethyl)urea]	5.52
C[C@@H](NC(=O)Nc1cc2[nH]nc(C(F)(F)F)c2c(CO)n1)c1ccccc1 [Example 29, (R)-1-(4-(hydroxymethyl)-3-(trifluoromethyl)-1H-pyrazolo[4,3-c]pyridin-6-yl)-3-(1-phenylethyl)urea]	13.2
CC(=O)c1n[nH]c2cc(NC(=O)N[C@H](C)c3ccccc3)nc(CO)c12 [Example 26, (R)-1-(3-acetyl-4-(hydroxymethyl)-1H-pyrazolo[4,3-c]pyridin-6-yl)-3-(1-phenylethyl)urea]	12.7
COCc1nc(NC(=O)N[C@H](C)c2ccccc2)cc2[nH]nc(-c3ccnc(C)c3)c12 [Example 20, (R)-1-(4-(Methoxymethyl)-3-(2-methylpyridin-4-yl)-1H-pyrazolo[4,3-c]pyridin-6-yl)-3-(1-phenylethyl)urea]	1.13
C[C@@H](NC(=O)Nc1cc2[nH]nc(C(F)F)c2c(CO)n1)c1ccccc1 [Example 24, 1-[3-(difluoromethyl)-4-(hydroxymethyl)-1H-pyrazolo[4,3-c]pyridin-6-yl]-3-[(1R)-1-phenylethyl]urea]	1.25
C[C@@H](NC(=O)Nc1cc2[nH]nc(-c3ccnc(C#N)c3)c2c(CO)n1)c1ccccc1 [Example 12, 1-[3-(2-cyanopyridin-4-yl)-4-(hydroxymethyl)-1H-pyrazolo[4,3-c]pyridin-6-yl]-3-[(1R)-1-phenylethyl]urea]	1.64
CC(C)(C)[C@@H](NC(=O)Nc1cc2[nH]nc(-c3ccc(F)cc3)c2c(CO)n1)c1ccccc1 [Example 17, 1-[(1R)-2,2-dimethyl-1-phenylpropyl]-3-[3-(4-fluorophenyl)-4-(hydroxymethyl)-1H-pyrazolo[4,3-c]pyridin-6-yl]urea]	8.64
CC(C)(O)[C@@H](NC(=O)Nc1cc2[nH]nc(C(F)F)c2c(CO)n1)c1ccccc1 [Example 22, (S)-1-(3-(difluoromethyl)-4-(hydroxymethyl)-1H-pyrazolo[4,3-c]pyridin-6-yl)-3-(2-hydroxy-2-methyl-1-phenylpropyl)urea]	0.75
Cc1cc(-c2n[nH]c3cc(NC(=O)N[C@H](COC(F)F)c4ccccc4)nc(CO)c23)ccn1 [Example 10, 1-[(1S)-2-(difluoromethoxy)-1-phenylethyl]-3-[4-(hydroxymethyl)-3-(2-methylpyridin-4-yl)-1H-pyrazolo[4,3-c]pyridin-6-yl]urea]	0.66
C[C@@H](NC(=O)Nc1cc2[nH]nc(C3CC3)c2c(CO)n1)c1ccccc1 [Example 5, (R)-1-(3-cyclopropyl-4-(hydroxymethyl)-1H-pyrazolo[4,3-c]pyridin-6-yl)-3-(1-phenylethyl)urea]	0.72

Now those with a lower IC50, led by results:

IC50 [nM]	SMILES
0.31	CC(C)(O)[C@@H](NC(=O)Nc1cc2[nH]nc(-c3ccc(F)cc3)c2c(CO)n1)c1ccccc1 [Example 13, 1-[3-(4-fluorophenyl)-4-(hydroxymethyl)-1H-pyrazolo[4,3-c]pyridin-6-yl]-3-[(1S)-2-hydroxy-2-methyl-1-phenylpropyl]urea]
0.49	CC(C)(O)[C@@H](NC(=O)Nc1cc2[nH]nc(C(F)F)c2c(CO)n1)c1ccc(F)cc1 [Example 23, 1-[3-(difluoromethyl)-4-(hydroxymethyl)-1H-pyrazolo[4,3-c]pyridin-6-yl]-3-[(1S)-1-(4-fluorophenyl)-2-hydroxy-2-methylpropyl]urea]
0.45	C[C@@H](NC(=O)Nc1cc2[nH]nc(-c3ccc(F)cc3)c2c(CO)n1)c1ccccc1 [Example 11, 1-[3-(4-fluorophenyl)-4-(hydroxymethyl)-1H-pyrazolo[4,3-c]pyridin-6-yl]-3-[(1R)-1-phenylethyl]urea]
0.61	Cc1nc(NC(=O)N[C@@H](c2ccccc2)C(C)(C)O)cc2[nH]nc(C(F)F)c12 [Example 21, (S)-1-(3-(difluoromethyl)-4-methyl-1H-pyrazolo[4,3-c]pyridin-6-yl)-3-(2-hydroxy-2-methyl-1-phenylpropyl)urea]
0.29	CC(C)(O)[C@@H](NC(=O)Nc1cc2[nH]nc(-c3ccc(F)cc3)c2c(CO)n1)c1ccc(F)cc1 [Example 15, 1-[(1S)-1-(4-fluorophenyl)-2-hydroxy-2-methylpropyl]-3-[3-(4-fluorophenyl)-4-(hydroxymethyl)-1H-pyrazolo[4,3-c]pyridin-6-yl]urea]
0.37	Cc1cc(-c2n[nH]c3cc(NC(=O)N[C@H](C)c4ccccc4)nc(C)c23)ccn1 [Example 1, (R)-1-(4-Methyl-3-(2-methylpyridin-4-yl)-1H-pyrazolo[4,3-c]pyridin-6-yl)-3-(1-phenylethyl)urea]
0.39	Cc1cc(-c2n[nH]c3cc(NC(=O)N[C@H](C)c4ccccc4)nc(CO)c23)ccn1 [Example 4, (R)-1-(4-(hydroxymethyl)-3-(2-methylpyridin-4-yl)-1H-pyrazolo[4,3-c]pyridin-6-yl)-3-(1-phenylethyl)urea]
0.37	CC(C)(O)[C@@H](NC(=O)Nc1cc2[nH]nc(-c3ccccc3)c2c(CO)n1)c1ccccc1 [Example 18, 1-[(1S)-2-hydroxy-2-methyl-1-phenylpropyl]-3-[4-(hydroxymethyl)-3-phenyl-1H-pyrazolo[4,3-c]pyridin-6-yl]urea]
0.53	CC(C)(O)[C@@H](NC(=O)Nc1cc2[nH]nc(-c3ccc(C#N)cc3)c2c(CO)n1)c1ccccc1 [Example 19, 1-[3-(4-cyanophenyl)-4-(hydroxymethyl)-1H-pyrazolo[4,3-c]pyridin-6-yl]-3-[(1S)-2-hydroxy-2-methyl-1-phenylpropyl]urea]
